Source: patent publication US5053070A, “Pyrimidine derivatives, preparation processes thereof, herbicide containing the same, and herbicidal compositions containing the same along with other active ingredient” (Mitsui Toatsu Chemicals, Incorporated, priority 1988, dated 1991)
Values after ≈ are worked out from the molar mass of the structure shown.

Experiments:
[1] = tested on: ALS (acetolactate syntase); test: ALS enzyme assay (Test 1); type: biochemical, barnyardgrass; settings: 1,000 ppm (0.5 mg/0.5 ml)
Protocol: To determine the selectivity in enzyme level between crops and weeds, and ALS enzyme assay was conducted using pea as a representative of broadleaf crops and barnyardgrass as a representative of narrowleaf weeds.
After seeds of pea and barnyardgrass were allowed to germinate at 25° C. for 8-14 days in a dark place, partially-purified suspensions (Suspensions A) of acetolactate syntase were separately obtained from seedlings in accordance with the method described in the literature, Plant Physiology, 75, 827-831.
In a test tube, 0.5 mg of one of test compounds was weighed, followed by the addition of 0.15 ml of a 20 mM K2 HPO4 solution and 0.25 ml of a reaction substrate medium which consisted of 40 mM of K2 HPO4, 40 mM of sodium pyruvate, 1 mM of TPP, 1 mM of MgCl2 and 20 μM of FAD so that 0.4 ml of a reaction solution (Solution B) was prepared. Added to 0.4 ml of Solution B was 0.1 ml of suspension A. After the resultant mixture was shaken for 1 hour in a thermostat water bath controlled at 30° C., 50 μl of 6N sulfuric acid were added to terminate the reaction.
Next, the reaction-terminated liquid mixture was transferred into a thermostat water bath controlled at 60° C. and was heated for 15 minutes. Thereafter, 0.5 ml of a 0.5% creatine solution and 0.5 ml of a 5% alkaline α-naphthol solution were added, and the resultant mixture was maintained at 60° C. for 15 minutes. As a result, the test solution developed a pink-red color. After the above operation, the absorbance of the test solution at 525 nm was measured by a spectrophotometer (Absorbance 1 of Test Compound).
On the other hand, the absorbance (Absorbance 2 of Blank) of a solution obtained by subjecting a portion of Solution B, said portion being free of the test compound, to the above operation and the absorbance (Absorbance 3 of sulfuric acid terminated) of another solution obtained by subjecting another portion of Solution B, said portion containing 50 μl of 6N sulfuric acid as a test compound, were measured at the same time. Based on the values of the respective measurements, the enzyme assay at 1,000 ppm (0.5 mg/0.5 ml) of each compound was determined. [formula]

[2] = tested on: rice; test: Treatment of soil under submerged condition, post-emergence (Test 5), injury; type: in vivo; settings: 30 g ai/a granule, 30 days later
Protocol: (§1) 1/5000-are Wagner pots were filled with soil. Seeds or tubers of barnyardgrass, Monochoria vaginalis, bulrush, Sagittaria pygmaea, Cyperus serroylnus and Eleocharis kuroguwai were seeded or planted under submerged condition. Two pairs of rice seedlings (2-3 leaf stage), which had been reared in advance, were transplanted to each pot and were allowed to grow in a green house. Each pair consisted of two rice seedlings. When the barnyardgrass grew to two-leaf stage, each pot was treated with a granule which had been prepared by processing a predetermined amount of the test composition in accordance with a similar method to the method described in Formulation Example 9. The state of emergence of weeds and the state of injury of rice were observed 30 days later.
(§2) In the table, the degrees of damages of the test plants and the degrees of injury of the rice are shown in a similar manner to Example 2.

[3] = tested on: rice; test: Treatment of soil under submerged condition, pre-emergence (Test 4), injury; type: in vivo; settings: 30 g ai/a granule, 30 days later
Protocol: as §1, with “seroylnus” for “serroylnus”, “germinate” for “grow”, “One day later (before emergence of weeds),” for “When the barnyardgrass grew to two-leaf stage,”
(§3) In the table, the degrees of damages of the test plants and the degrees of injury of rice are shown in a similar manner to Example 2.

[4] = tested on: bulrush; test: Treatment of soil under submerged condition, pre-emergence (Test 4); type: in vivo; settings: 30 g ai/a granule, 30 days later
Protocol: as §1, with “seroylnus” for “serroylnus”, “germinate” for “grow”, “One day later (before emergence of weeds),” for “When the barnyardgrass grew to two-leaf stage,”
as §3

[5] = tested on: Sagittaria pygmaea; test: as above; type: in vivo; settings: 30 g ai/a granule, 30 days later
Protocol: as §1, with “seroylnus” for “serroylnus”, “germinate” for “grow”, “One day later (before emergence of weeds),” for “When the barnyardgrass grew to two-leaf stage,”
as §3

[6] = tested on: barnyardgrass; test: as above; type: in vivo; settings: 30 g ai/a granule, 30 days later
Protocol: as §1, with “seroylnus” for “serroylnus”, “germinate” for “grow”, “One day later (before emergence of weeds),” for “When the barnyardgrass grew to two-leaf stage,”
as §3

[7] = tested on: large crabgrass; test: Upland foliar application test (Test 3); type: in vivo; settings: 30 g ai/a, foliar spray at 2-3 leaves, 30th day
Protocol: (§4) Resin-made 1/10000-are pots were filled with the soil of an upland field. Redroot pigweed, common lambsquarters, foxtail meadow, johnsongrass, barnyardgrass, green foxtail, large crabgrass, soybean, peanut and cotton were separately seeded and were allowed to germinate in a green house. When each plant grew to the stage of 2-3 leaves, an emulsion formulated from a predetermined amount of each test compound in a similar manner to the method described in Formulation Example 11 was diluted with water to a predetermined dilution rate and then sprayed at an application rate equal to 5 l per are onto the foliage of each plant by means of a pressure-operated ULV (ultra low volume) sprayer. Influence to the crops and weeds were observed on the 30th day after the spray of the herbicides. The results are shown in Table 4 in which the degree of damages of each test plant and the degree of injury to each crop are shown in a similar manner to Test 2.

[8] = tested on: redroot pigweed; test: Upland foliar application test (Test 3); type: in vivo; settings: 30 g ai/a, foliar spray at 2-3 leaves, 30th day
Protocol: as §4

[9] = tested on: johnsongrass; test: Upland foliar application test (Test 3); type: in vivo; settings: 30 g ai/a, foliar spray at 2-3 leaves, 30th day
Protocol: as §4

[10] = tested on: common lambsquarters; test: Upland foliar application test (Test 3); type: in vivo; settings: 30 g ai/a, foliar spray at 2-3 leaves, 30th day
Protocol: as §4

[11] = tested on: foxtail meadow; test: Upland foliar application test (Test 3); type: in vivo; settings: 30 g ai/a, foliar spray at 2-3 leaves, 30th day
Protocol: as §4

[12] = tested on: green foxtail; test: Upland foliar application test (Test 3); type: in vivo; settings: 30 g ai/a, foliar spray at 2-3 leaves, 30th day
Protocol: as §4

[13] = tested on: barnyardgrass; test: Upland foliar application test (Test 3); type: in vivo; settings: 30 g ai/a, foliar spray at 2-3 leaves, 30th day
Protocol: as §4

[14] = tested on: peanut; test: Upland foliar application test (Test 3), crop injury; type: in vivo; settings: 30 g ai/a, foliar spray at 2-3 leaves, 30th day
Protocol: as §4

[15] = tested on: bulrush; test: Treatment of soil under submerged condition, post-emergence (Test 5); type: in vivo; settings: 30 g ai/a granule, 30 days later
Protocol: as §1, §2

[16] = tested on: Sagittaria pygmaea; test: as above; type: in vivo; settings: 30 g ai/a granule, 30 days later
Protocol: as §1, §2

[17] = tested on: barnyardgrass; test: as above; type: in vivo; settings: 30 g ai/a granule, post-emergence (barnyardgrass two-leaf stage), 30 days later
Protocol: as §1, §2

[18] = tested on: narrowleaf waterplantain; test: Petri dish test (Test 6); type: in vivo; settings: 336 h; seeds on filter paper, 25° C., 14 days; read-out: I80 (ppm)
Protocol: A filter paper was placed in each glass-made Petri dish having a diameter of 9 cm. A compound dissolved in acetone was added in a predetermined amount. The filter paper was then dried in air to remove acetone. Seeds of narrowleaf waterplantain were placed on the filter paper and 10 ml of water were poured into the Petri dish. The seeds were allowed to grow at 25° C. in a bright room. Fourteen days later, the state of growth of narrowleaf water-plantain was observed.
In the table, the degree of damages of the test plant was determined by comparing the state of growth of the plant with that of the plant in an untreated group and is shown in accordance with the following standard: […]

| SMILES | Inhibitory activity (%) Barnyardgrass [1] [%] | Injury Rice [2] | Injury Rice [3] | Herbicidal effects Bulrush [4] | Herbicidal effects Sagittaria Pygmaea [5] | Herbicidal effects Barnyardgrass [6] | Herbicidal effects Large crabgrass [7] | Herbicidal effects Redroot pigweed [8] | Herbicidal effects Johnsongrass [9] | Herbicidal effects Common lambsquarters [10] | Herbicidal effects Foxtail meadow [11] | Herbicidal effects Green foxtail [12] | Herbicidal effects Barnyardgrass [13] | Injury Peanut [14] | Herbicidal effects Bulrush [15] | Herbicidal effects Sagittaria Pygmaea [16] | Herbicidal effects Barnyardgrass [17] | IC80 [18] [µg/mL] |
| --- | --- | --- | --- | --- | --- | --- | --- | --- | --- | --- | --- | --- | --- | --- | --- | --- | --- | --- |
| COc1cc(OC)nc(Oc2ccccc2C=NOC2CCCCC2)n1 [Compound No. 3] | 22 | 0 (91-100 (No damages)) | 0 (91-100 (No damages)) | 4 (6-10 (Severe damages)) | 5 (0-5 (Death)) | 4 (6-10 (Severe damages)) | 4 (6-10 (Severe damages)) | 4 (6-10 (Severe damages)) | 5 (0-5 (Death)) | 4 (6-10 (Severe damages)) | 5 (0-5 (Death)) | 5 (0-5 (Death)) | 5 (0-5 (Death)) | 0 (91-100 (No damages)) | 3 (11-40 (Medium damages)) | 3 (11-40 (Medium damages)) | 3 (11-40 (Medium damages)) | 100 (≈ 280 µM) |
| C=CCON=Cc1ccccc1Oc1nc(OC)cc(OC)n1 [Compound No. 4] | 59 | 0 (91-100 (No damages)) | 0 (91-100 (No damages)) | 4 (6-10 (Severe damages)) | 4 (6-10 (Severe damages)) | 4 (6-10 (Severe damages)) | 3 (11-40 (Medium damages)) | 4 (6-10 (Severe damages)) | 5 (0-5 (Death)) | 3 (11-40 (Medium damages)) | 5 (0-5 (Death)) | 5 (0-5 (Death)) | 5 (0-5 (Death)) | 0 (91-100 (No damages)) | 4 (6-10 (Severe damages)) | 3 (11-40 (Medium damages)) | 5 (0-5 (Death)) | 100 (≈ 317 µM) |
| COc1cc(OC)nc(Oc2ccccc2C=NOCC=C(C)C)n1 [Compound No. 7] | 84 | 0 (91-100 (No damages)) | 1 (71-90 (Slight damages)) | 4 (6-10 (Severe damages)) | 5 (0-5 (Death)) | 5 (0-5 (Death)) | 5 (0-5 (Death)) | 5 (0-5 (Death)) | 5 (0-5 (Death)) | 4 (6-10 (Severe damages)) | 5 (0-5 (Death)) | 5 (0-5 (Death)) | 5 (0-5 (Death)) | 0 (91-100 (No damages)) | 5 (0-5 (Death)) | 3 (11-40 (Medium damages)) | 5 (0-5 (Death)) | 17 (≈ 49.5 µM) |
| COc1cc(OC)nc(Oc2ccccc2C=NOCC=Cc2ccccc2)n1 [Compound No. 9] | 95 | 0 (91-100 (No damages)) | 1 (71-90 (Slight damages)) | 4 (6-10 (Severe damages)) | 5 (0-5 (Death)) | 5 (0-5 (Death)) | 5 (0-5 (Death)) | 5 (0-5 (Death)) | 5 (0-5 (Death)) | 4 (6-10 (Severe damages)) | 5 (0-5 (Death)) | 5 (0-5 (Death)) | 5 (0-5 (Death)) | 0 (91-100 (No damages)) | 5 (0-5 (Death)) | 5 (0-5 (Death)) | 5 (0-5 (Death)) | 2 (≈ 5.11 µM) |
